From patent US20070025939A1, “cosmetic compositions containing hydroquinone and various sunscreen agents” (L'Oreal S.A., priority 2005, published 2007)

Tests used:
Format in all cases: physicochemical
[1] = Discoloration of hydroquinone solutions with stabilizer in various solvents after storage; conditions: hydroquinone solutions in various solvents (ethanol absolute, 40-B, 40-2, 3A), glass vials, four weeks at 45° C., FIGS. 2A-D
Description: FIGS. 2A-D are photographs of containers of various compositions, each comprising 0.1% benzophenone-4 in 100 ml of various solvents, after storage for four weeks at 45° C. In another set of experiments, solutions containing […] in various solvents (as shown below) were prepared, and then stored in glass vials for four weeks at 45° C.

[2] = Discoloration of compositions associated with oxidation of hydroquinone (general statement); conditions: compositions containing hydroquinone
[3] = Discoloration of 1% hydroquinone solutions in SDA 40-2 ethanol with 0.1% stabilizer after storage; conditions: hydroquinone 1% w/w in 200-proof ethanol SDA grade 40-2, 0.1% w/w stabilizer, glass vials, 4 weeks at 45° C., FIG. 1
Description: FIG. 1 is a photograph of containers of various compositions, each comprising 1% hydroquinone, 0.1% of various stabilizers, in a vehicle of SDA grade 40-2 ethanol. Solutions of hydroquinone (1% w/w), in 200-proof ethanol (SDA grade 40-2, which includes brucine sulfate as a denaturant) with 0.1% w/w of various compounds, namely BHT, benzophenone-3, ascorbic acid, Tinogard HS, Tinogard TT, Tinogard Q, benzophenone-4, Tinogard TT DD and ascorbyl glucoside were prepared, and then stored in glass vials for 4 weeks at 45° C. The results of the experiments are illustrated in FIG. 1.

SMILES	discoloration of the solutions [1]	discoloration of compositions associated with oxidation of hydroquinone [2]	discoloration of the solution [3]
CC1(C)C2CCC1(CS(=O)(=O)O)C(=O)/C2=C/c1ccc(/C=C2/C(=O)C3(CS(=O)(=O)O)CCC2C3(C)C)cc1 [Mexoryl SX, tetraphthalylidene dicamphor sulfonic acid]	substantially no discoloration	inhibit or reduce discoloration	
COc1cc(O)c(C(=O)c2ccccc2)cc1S(=O)(=O)O [benzophenone-4, 5-Benzoyl-4-Hydroxy-2-Methoxybenzene Sulfonic Acid]	substantially no discoloration	inhibit or reduce discoloration	substantially no discoloration
